In general, Ki refers to the dissociation constant of the complex between target and ligand, obtained from inhibition or displacement.

Consider 59 compounds from patent publication US20110207729A1, “BICYCLIC ACYLGUANIDINE DERIVATIVE” (ASTELLAS PHARMA INC., priority 2007, published 2011).

The assay addresses T1, human 5-HT5A receptor (Homo sapiens, UniProt P47898).
T1 construct: expressed in transfected cells; membrane preparation
As to the kind of experiment: Test on a human 5-HT5A receptor binding inhibition ([3H]5-CT). The following applies: membrane from HEK293 cells expressing human 5-HT5A receptor; Ki calculated from IC50 and Kd 4.95 nM. Here is the method:
Acquisition of HEK293 cells for forced expressions of a human 5-HT5A receptor
The ORF (open reading frame; protein coding region) of a human 5-HT5A receptor (Genbank AF498985) was cloned from a human hippocampus cDNA library, and then inserted into a pCR2.1 vector (Invitrogen), and Escherichia coli containing the plasmid was cultured in a large amount. Next, the full-length cDNA sequence of the human 5-HT5A receptor was analyzed, and recombined into a pcDNA3.1 vector (Invitrogen) as an expression vector and cultured in a large amount. HEK293 established cells (ATCC) derived from the human fetal kidney were seeded, the expression plasmid (1 μg) obtained above were added thereto with LIPOFECTAMINE 2000 (Invitrogen; 2 μl), the gene was transfected into HEK293 cells, and the expression cells were screened with a drug-resistant marker, Geneticin (G418 sulfate 500 μg/ml; Kanto Chemical Co., Inc.). Thus prepared recombinant cells which express the gene were cultured in a medium containing D-MEM (Dulbecco's modified eagle medium, Sigma), 10% FCS (Fetal calf serum: fetal bovine serum), 1% Pc./Sm (Penicillin/Streptomycin, Invitrogen), and 500 μg/ml G418 for 3 days. These experimental operations follow an manual for gene operation experiment and an instruction appended in a reagent, and the like, such as a known method (Sambrook, J. et al, Molecular Cloning—A Laboratory Manual”, Cold Spring Harabor laboratory, NY, 1989).
(1) Preparation of a Membrane from HEK293 Cells for Forced Expressions of a Human 5-HT5A Receptor
HEK293 cells for forced expressions of a human 5-HT5A receptor were cultured in a F500 plate, and scraped with a scraper. After centrifugation, a precipitate was collected, and an incubation buffer (50 mM Tris (HCl) (pH 7.4), 10 mM MgSO4, and 0.5 mM EDTA (ethylenediamine tetraacetic acid)) were added thereto. After homogenization, it was further centrifuged, and the precipitate was added with the incubation buffer, followed by thoroughly suspending. This operation was repeated, and a protein concentration was measured, thereby completing the preparation of a membrane.
(2) Test on a Human 5-HT5A Receptor Binding Inhibition
A solution of a compound to be tested and 100 μM 5-CT (5-carboxamidetriptamine) in DMSO was added to a 96-well plate at 2 μl/well, and suspended in an incubation buffer, and a membrane from HEK293 cells for forced expressions of a human 5-HT5A receptor prepared at 200 μg/ml was added at 100 μl/well. After incubation at room temperature for 15 minutes, a [^3H]5-CT solution (2 nM [^3H]5-CT, incubation buffer) was added thereto at 100 μl/well.
Separately, 100 μl of the solution was distributed into a liquid scintillation vial, and 2 ml of Aquasol II (registered trademark) was added thereto, followed by stirring. Then, a radioactivity was measured by a liquid scintillation counter. It was incubated at 37° C. for 60 minutes. The reaction mixture was sucked into 96-well GF/C filter plate that had been pre-treated with 0.2% polyethyleneimine, and washed six times with an ice-cooled, 50 mM Tris (pH 7.5) buffer. The GF/C filter plate was dried.
Microscint TMPS (registered trademark) was added thereto at 40 μl/well. A radioactivity remaining on the GF/C filter plate was measured by a top counter.
The [^3H]5-CT binding inhibiting activity by the compound to be tested in each experiment was determined as an IC50 value with a radioactivity upon addition of DMSO alone being 0% inhibition, and a radioactivity upon addition of 1 μM 5-CT being 100% inhibition. Separately, a Ki value was calculated from the Kd value of the [^3H]5-CT determined from Scatchard analysis, by the following equation.
Ki=IC50(1+Concentration of ligands added/Kd(4.95 nM))

T1 sequence (P47898 whole entry): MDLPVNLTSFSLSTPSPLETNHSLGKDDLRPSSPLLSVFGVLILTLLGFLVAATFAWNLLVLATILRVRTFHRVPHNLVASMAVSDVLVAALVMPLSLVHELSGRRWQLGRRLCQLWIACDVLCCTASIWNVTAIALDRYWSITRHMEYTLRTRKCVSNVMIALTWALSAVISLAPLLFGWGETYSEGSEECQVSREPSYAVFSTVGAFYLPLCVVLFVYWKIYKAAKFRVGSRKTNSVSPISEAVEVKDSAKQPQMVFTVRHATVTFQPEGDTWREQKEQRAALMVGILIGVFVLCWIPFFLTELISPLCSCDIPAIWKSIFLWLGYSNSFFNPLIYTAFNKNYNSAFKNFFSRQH

Turning to `NC(N)=NC(=O)c1ccc2c(c1)C(c1ccccc1F)=CCC2` [Example 2-09], the Ki was 0.3 to 3 nM.
To `NC(N)=NC(=O)c1ccc2c(c1)C(c1cccc(Cl)c1)=CCC2` [Example 2-10] belongs 3 to 30 nM; to `NC(N)=NC(=O)c1ccc2c(c1)C(c1ccsc1)=CCC2` [Example 2-19], 0.3 to 3 nM.
Next, `NC(N)=NC(=O)c1ccc2c(c1)C(c1ccco1)=CCC2` [Example 2-20]: 3 to 30 nM; `NC(N)=NC(=O)c1ccc2c(c1)C(c1cccs1)=CCC2` [Example 2-21]: 0.3 to 3 nM.
Next, `N#Cc1ccc(C2=CCCc3ccc(C(=O)N=C(N)N)cc32)cc1` [Example 2-25]: 0.3 to 3 nM.
Take `NC(=O)c1cccc(C2=CCCc3ccc(C(=O)N=C(N)N)cc32)c1` [Example 2-30]: the Ki was 30 to 300 nM.
To `NC(N)=NC(=O)c1ccc2c(c1)C(C1CCOCC1)=CCC2` [Example 2-31] belongs 3 to 30 nM.
In the case of `CN(C)Cc1ccc(C2=CCCc3ccc(C(=O)N=C(N)N)cc32)cc1` [Example 2-32], the Ki is 3 to 30 nM.
Next, `NC(N)=NC(=O)c1ccc2c(c1)C(c1ccccc1Oc1ccccc1)=CCC2` [Example 2-33]: 30 to 300 nM; `NC(N)=NC(=O)c1ccc2c(c1)C(c1cccc(CO)c1)=CCC2` [Example 2-34]: 3 to 30 nM; `NC(N)=NC(=O)c1ccc2c(c1)C(c1ccccc1CO)=CCC2` [Example 2-35]: 30 to 300 nM.
To `CN(C)Cc1ccccc1C1=CCCc2ccc(C(=O)N=C(N)N)cc21` [Example 2-36] belongs 30 to 300 nM; to `CN(C)Cc1cccc(C2=CCCc3ccc(C(=O)N=C(N)N)cc32)c1` [Example 2-38], 3 to 30 nM; to `NC(N)=NC(=O)c1ccc2c(c1)C(c1ccccc1)=C(F)CC2` [Example 2-43], 0.3 to 3 nM.
Consider `CCOc1ccccc1C1=CCCc2ccc(C(=O)N=C(N)N)cc21` [Example 2-44], for which the Ki was 30 to 300 nM.
Consider `CC(C)Oc1ccccc1C1=CCCc2ccc(C(=O)N=C(N)N)cc21` [Example 2-45], for which the inhibitory constant (Ki) is 30 to 300 nM.
Take `NC(N)=NC(=O)c1ccc2c(c1)C(c1ccccc1[N+](=O)[O-])=CCC2` [Example 2-46]: the Ki is 3 to 30 nM.
Next, `NC(N)=NC(=O)c1ccc2c(c1)C(c1cccc([N+](=O)[O-])c1)=CCC2` [Example 2-47]: 3 to 30 nM.
On to `NC(N)=NC(=O)c1ccc2c(c1)C(c1ccc([N+](=O)[O-])cc1)=CCC2` [Example 2-48], for which the Ki is 0.3 to 3 nM.
As to `NC(N)=NC(=O)c1ccc2c(c1)C(c1ccncc1)=CCC2` [Example 2-49], the Ki was 3 to 30 nM.
For `NC(N)=NC(=O)c1ccc2c(c1)C(c1ccccc1O)=CCC2` [Example 2-50], the Ki is 3 to 30 nM.
To `NC(N)=NC(=O)c1ccc2c(c1)C(c1cccc(O)c1)=CCC2` [Example 2-51] belongs 0.3 to 3 nM.
Next, `NC(N)=NC(=O)c1ccc2c(c1)C(c1ccc(O)cc1)=CCC2` [Example 2-52]: 0.3 to 3 nM; `NC(N)=NC(=O)c1ccc2c(c1)C(c1ccc(F)nc1)=CCC2` [Example 2-53]: 3 to 30 nM; `COc1cc(F)ccc1C1=CCCc2ccc(C(=O)N=C(N)N)cc21` [Example 2-54]: 0.3 to 3 nM.
For the compound `COc1cc(C#N)ccc1C1=CCCc2ccc(C(=O)N=C(N)N)cc21` [Example 2-55], the Ki is 0.3 to 3 nM.
To `CC1=C(c2ccccc2)c2cc(C(=O)N=C(N)N)ccc2CC1` [Example 2-56] belongs 2.3 nM; to `N#Cc1cc(F)ccc1C1=CCCc2ccc(C(=O)N=C(N)N)cc21` [Example 2-57], 3 to 30 nM; to `COc1ccccc1C1=C(C)CCc2ccc(C(=O)N=C(N)N)cc21` [Example 2-58], 3 to 30 nM.
On to `CC1=C(c2ccc(C#N)cc2)c2cc(C(=O)N=C(N)N)ccc2CC1` [Example 2-59], for which the inhibition constant (Ki) was 0.3 to 3 nM.
For `NC(N)=NC(=O)c1ccc2c(c1)C(c1c(F)cc(F)cc1F)=CCC2` [Example 2-60], the Ki is 0.3 to 3 nM.
Regarding `COc1ccc(C#N)cc1C1=CCCc2ccc(C(=O)N=C(N)N)cc21` [Example 2-61], the Ki is 3 to 30 nM.
To `N#Cc1cc(C2=CCCc3ccc(C(=O)N=C(N)N)cc32)ccc1F` [Example 2-62] belongs 30 to 300 nM; to `COc1cccc(C#N)c1C1=CCCc2ccc(C(=O)N=C(N)N)cc21` [Example 2-66], 30 to 300 nM.
Next, `NC(N)=NC(=O)c1ccc2c(c1)C(c1ccc(Cl)cc1F)=CCC2` [Example 2-67]: 0.3 to 3 nM.
To `COc1ccc(C2=CCCc3ccc(C(=O)N=C(N)N)cc32)c(C#N)c1` [Example 2-68] belongs 30 to 300 nM; to `Cc1cc(C)c(C2=CCCc3ccc(C(=O)N=C(N)N)cc32)c(C)c1` [Example 2-69], 3 to 30 nM.
With `NC(N)=NC(=O)c1ccc2c(c1)C(c1ccc(F)cc1Cl)=CCC2` [Example 2-70], the Ki is 0.3 to 3 nM.
Next, `COc1cc(F)ccc1C1=C(C)CCc2ccc(C(=O)N=C(N)N)cc21` [Example 2-71]: 3 to 30 nM; `Cn1cc(C2=CCCc3ccc(C(=O)N=C(N)N)cc32)cn1` [Example 2-77]: 30 to 300 nM.
On to `COc1ccc(C2=CCCc3ccc(C(=O)N=C(N)N)cc32)cc1C#N` [Example 2-78], for which the Ki was 3 to 30 nM.
Next, `Cc1ccc(C2=CCCc3ccc(C(=O)N=C(N)N)cc32)c(C#N)c1` [Example 2-79]: 3 to 30 nM; `CC1(C)CC=C(c2ccccc2)c2cc(C(=O)N=C(N)N)ccc21` [Example 2-80]: 30 to 300 nM.
To `Cn1nccc1C1=CCCc2ccc(C(=O)N=C(N)N)cc21` [Example 2-81] belongs 3 to 30 nM; to `CSc1ccccc1C1=CCCc2ccc(C(=O)N=C(N)N)cc21` [Example 2-82], 3 to 30 nM; to `COc1ccc(C2=CCCc3ccc(C(=O)N=C(N)N)cc32)c(F)c1` [Example 2-85], 0.3 to 3 nM.
`NC(N)=NC(=O)c1ccc2c(c1)C(c1cnccn1)=CCC2` [Example 2-86]: the Ki was 30 to 300 nM.
As for `CCOc1ccc(C2=CCCc3ccc(C(=O)N=C(N)N)cc32)cc1` [Example 2-87], the Ki was 3 to 30 nM.
As for `CC(C)Oc1ccc(C2=CCCc3ccc(C(=O)N=C(N)N)cc32)cc1` [Example 2-88], the Ki is 30 to 300 nM.
To `NC(N)=NC(=O)c1ccc2c(c1)C(c1ccccn1)=CCC2` [Example 2-89] belongs 30 to 300 nM.
Next, `NC(N)=NC(=O)c1ccc2c(c1)C(c1ccc(F)cc1F)=C(F)CC2` [Example 2-90]: 3 to 30 nM.
On to `N#Cc1ccc(C2=C(F)CCc3ccc(C(=O)N=C(N)N)cc32)cc1` [Example 2-91], for which the Ki was 0.3 to 3 nM.
For `NC(N)=NC(=O)c1ccc2c(c1)C(c1nccs1)=CCC2` [Example 2-93], the inhibitory constant (Ki) was 30 to 300 nM.
With `COc1cc(F)c(C2=CCCc3ccc(C(=O)N=C(N)N)cc32)c(F)c1` [Example 2-94], the Ki was 3 to 30 nM.
In the case of `NC(N)=NC(=O)c1ccc2c(c1)C(c1ccc(F)c(F)c1F)=CCC2` [Example 2-95], the Ki was 0.3 to 3 nM.
As for `NC(N)=NC(=O)c1ccc2c(c1)C(c1ccc(F)cc1)=C(F)CC2` [Example 2-96], the Ki was 0.3 to 3 nM.
To `CS(=O)(=O)c1ccc(C2=CCCc3ccc(C(=O)N=C(N)N)cc32)cc1` [Example 2-97] belongs 30 to 300 nM; to `NC(N)=NC(=O)c1ccc2c(c1)C(c1ccccc1OC(F)(F)F)=CCC2` [Example 2-98], 30 to 300 nM.
